Test results taken from patent publication US11147272B2, “Pyridone compounds and agricultural and horticultural fungicides comprising the same as active ingredients” (MITSUI CHEMICALS AGRO, INC., priority 2017, dated 2021).

Key:
Alternaia brassicicola = assay: Test Example C: Alternaria sooty spot on cabbage; assay type: in vivo; conditions: for Test C control value class: class of control value
Description: Seeds of a test plant (cabbage variety: Shikidori) were planted and cultivated until the cotyledons extended.
<Control Value> Control value=100{1−(n/3)}

Botrytis cinerea = assay: Test Example B: Gray mold on tomato; conditions: for Test B control value class: class of control value
Magnaporthe grisea = assay: whole plant or invertebrate; assay type: in vivo; conditions: for Test A control value class: class of control value
Plasmopara viticola = assay: Test Example G: Downy mildew on vine; conditions: for Test G control value: 7 to 10 days after inoculation; for Test G control value class: Downy mildew on vine (Neomuscat), 2.5 ml/pot, assessed 7 to 10 days after inoculation
[1] = tested on: Colletotrichum orbiculare; assay: Test Example H: Anthracnose on cucumber; conditions: for Test H control value: 6 to 10 days after inoculation; for Test H control value class: Anthracnose on cucumber (Sagami Hanjiro), 2.5 ml/pot, assessed 6 to 10 days after inoculation
Phytophthora infestans = assay: whole plant or invertebrate; assay type: in vivo; conditions: for Test F control value class: class of control value
[2] = tested on: Blumeria graminis f. sp. hordei; assay: Test Example D: Powdery mildew on barley; conditions: for Test D control value class: class of control value
Puccinia recondita = assay: Test Example E: Brown rust on wheat; assay type: in vivo; conditions: for Test E control value class: class of control value
[3] = 250 ppm drug solution sprayed on test plant
[4] = 250 ppm drug solution sprayed (2.5 ml/pot), grape Neomuscat
[5] = 250 ppm drug solution sprayed (2.5 ml/pot), cucumber Sagami Hanjiro
[6] = Alternaria sooty spot on cabbage
[7] = Alternaria sooty spot on cabbage, control value class
[8] = Gray mold on tomato, control value class
[9] = Blast on rice, control value class
[10] = Downy mildew on vine, 250 ppm spray
[11] = Anthracnose on cucumber, 250 ppm spray
[12] = Late blight on tomato, control value class
[13] = Powdery mildew on barley, control value class
[14] = Brown rust on wheat, control value class

| SMILES | Test C control value (Alternaia brassicicola; [3]) | Test B control value (Botrytis cinerea; [3]) | Test A control value (Magnaporthe grisea; [3]) | Test G control value (Plasmopara viticola; [4]) | Test H control value [1, 5] | Test F control value (Phytophthora infestans; [3]) | Test D control value [2, 3] | Test E control value (Puccinia recondita; [3]) | Test C control value class (Alternaia brassicicola; [6]) | Test B control value class (Botrytis cinerea; Gray mold on tomato) | Test A control value class (Magnaporthe grisea; Blast on rice) | Test G control value class (Plasmopara viticola; 250 ppm spray) | Test H control value class ([1]; 250 ppm spray) | Test F control value class (Phytophthora infestans; Late blight on tomato) | Test D control value class ([2]; Powdery mildew on barley) | Test E control value class (Puccinia recondita; Brown rust on wheat) | other results |
| --- | --- | --- | --- | --- | --- | --- | --- | --- | --- | --- | --- | --- | --- | --- | --- | --- | --- |
| CCC(C)(O)c1cc(Cl)c(=O)n(C)c1-c1c(F)cc(OC)cc1F (centres unmarked) [compound 513] | H (more than 50% control value) | H (more than 50% control value) | H (more than 50% control value) | H (more than 50% control value) | H (more than 50% control value) | L (50% or less control value) | H (more than 50% control value) | H (more than 50% control value) | – | – | – | – | – | – | – | – | – |
| CCOC(C)(CC)c1cc(Br)c(=O)n(CC)c1-c1c(F)cc(F)cc1F (centres unmarked) [compound 484] | L (50% or less control value) | H (more than 50% control value) | H (more than 50% control value) | H (more than 50% control value) | H (more than 50% control value) | L (50% or less control value) | H (more than 50% control value) | H (more than 50% control value) | – | – | – | – | – | – | – | – | – |
| CCC(C)(OC)c1cc(Cl)c(=O)n(C)c1-c1c(F)cc(F)cc1F (centres unmarked) [compound 508] | H (more than 50% control value) | H (more than 50% control value) | H (more than 50% control value) | H (more than 50% control value) | H (more than 50% control value) | L (50% or less control value) | H (more than 50% control value) | H (more than 50% control value) | – | – | – | – | – | – | – | – | – |
| CCn1c(-c2ccc(F)cc2Cl)c(C2CCCCC2)cc(Cl)c1=O [compound 181] | – | – | – | – | – | – | – | – | H (more than 50% control value) | H (more than 50% control value) | H (more than 50% control value) | H (more than 50% control value) | H (more than 50% control value) | L (50% or less control value) | H (more than 50% control value) | H (more than 50% control value) | – |
| CCOC(C)(c1cc(Cl)c(=O)n(C)c1-c1c(F)cc(OC)cc1F)C(C)C (centres unmarked) [compound 489] | H (more than 50% control value) | H (more than 50% control value) | H (more than 50% control value) | L (50% or less control value) | H (more than 50% control value) | L (50% or less control value) | H (more than 50% control value) | H (more than 50% control value) | – | – | – | – | – | – | – | – | – |
| CCc1ccc(=O)n(C)c1-c1ccc(OC)cc1Br [compound 354] | – | – | – | – | – | – | – | – | – | – | – | – | – | – | – | – | Test C control value (Alternaia brassicicola; [7]): L (50% or less control value); Test B control value (Botrytis cinerea; [8]): L (50% or less control value); Test A control value (Magnaporthe grisea; [9]): L (50% or less control value); Test G control value (Plasmopara viticola; [10]): L (50% or less control value); Test H control value [1, 11]: H (more than 50% control value); Test F control value (Phytophthora infestans; [12]): L (50% or less control value); Test D control value [2, 13]: L (50% or less control value); Test E control value (Puccinia recondita; [14]): H (more than 50% control value) |
| CCc1cc(Br)c(=O)n(CC)c1-c1c(F)cc(F)cc1F [compound 387] | H (more than 50% control value) | H (more than 50% control value) | H (more than 50% control value) | H (more than 50% control value) | H (more than 50% control value) | L (50% or less control value) | H (more than 50% control value) | H (more than 50% control value) | – | – | – | – | – | – | – | – | – |
| CCn1c(-c2c(F)cc(OC)cc2F)c(C(OC)C(C)(C)C)cc(Cl)c1=O (racemic) [compound 170] | – | – | – | – | – | – | – | – | H (more than 50% control value) | H (more than 50% control value) | H (more than 50% control value) | H (more than 50% control value) | H (more than 50% control value) | H (more than 50% control value) | H (more than 50% control value) | H (more than 50% control value) | – |
| CCn1c(-c2c(F)cc(F)cc2F)c(C(O)C2CCCC2)cc(Cl)c1=O (centres unmarked) [compound 231] | – | – | – | – | – | – | – | – | – | – | – | – | – | – | – | – | Test C control value (Alternaia brassicicola; [7]): H (more than 50% control value); Test B control value (Botrytis cinerea; [8]): H (more than 50% control value); Test A control value (Magnaporthe grisea; [9]): H (more than 50% control value); Test G control value (Plasmopara viticola; [10]): H (more than 50% control value); Test H control value [1, 11]: H (more than 50% control value); Test F control value (Phytophthora infestans; [12]): H (more than 50% control value); Test D control value [2, 13]: H (more than 50% control value); Test E control value (Puccinia recondita; [14]): H (more than 50% control value) |
| CCn1c(-c2c(F)cc(F)cc2F)c(C(OC)N(C)C(C)C)cc(Cl)c1=O (centres unmarked) [compound 81] | – | – | – | – | – | – | – | – | L (50% or less control value) | H (more than 50% control value) | H (more than 50% control value) | L (50% or less control value) | L (50% or less control value) | L (50% or less control value) | L (50% or less control value) | L (50% or less control value) | – |
| CCCc1cc(Cl)c(=O)n(CC)c1-c1ccc(F)cc1Cl [compound 191] | – | – | – | – | – | – | – | – | – | – | – | – | – | – | – | – | Test C control value (Alternaia brassicicola; [7]): H (more than 50% control value); Test B control value (Botrytis cinerea; [8]): H (more than 50% control value); Test A control value (Magnaporthe grisea; [9]): H (more than 50% control value); Test G control value (Plasmopara viticola; [10]): H (more than 50% control value); Test H control value [1, 11]: H (more than 50% control value); Test F control value (Phytophthora infestans; [12]): L (50% or less control value); Test D control value [2, 13]: H (more than 50% control value); Test E control value (Puccinia recondita; [14]): H (more than 50% control value) |
| CCn1c(-c2c(F)cc(F)cc2F)c(CN(OC)C(C)=O)cc(Cl)c1=O [compound 132] | – | – | – | – | – | – | – | – | H (more than 50% control value) | L (50% or less control value) | H (more than 50% control value) | L (50% or less control value) | L (50% or less control value) | L (50% or less control value) | L (50% or less control value) | L (50% or less control value) | – |
| CCCc1cc(Br)c(=O)n(C)c1-c1ccc(OC)cc1C [compound 431] | H (more than 50% control value) | H (more than 50% control value) | H (more than 50% control value) | H (more than 50% control value) | H (more than 50% control value) | L (50% or less control value) | H (more than 50% control value) | H (more than 50% control value) | – | – | – | – | – | – | – | – | – |
